Laboratory results: ChEMBL document CHEMBL2429805, “Studies toward the development of new silicon-containing building blocks for the direct (18)F-labeling of peptides” (J Med Chem, 2013)

What was measured:
[1] = Drug metabolism in PBS buffer assessed as compound hydrolysis; type: physicochemical
[2] = Drug metabolism in 0.9% NaCl assessed as compound hydrolysis; type: physicochemical
[3] = Half life of the compound in water; type: physicochemical
Mus musculus [4] = assay: Biodistribution in abdominal region of NMRI nude mouse xenografted with human PC3 cells at 3.6 to 5.1 MBq after 62 to 170 mins by PET imaging analysis; type: ADME, organism-based, Abdomen, PC-3; details: in vivo
[5] = Ratio of biodistribution in tumor to muscle of NMRI nude mouse xenografted with human PC3 cells after 182 mins by gamma-counting analysis; type: ADME, organism-based, PC-3; details: in vivo
[6] = Ratio of biodistribution in tumor to blood of NMRI nude mouse xenografted with human PC3 cells after 182 mins by gamma-counting analysis; type: ADME, organism-based, PC-3; details: tumour
Stomach [7] = assay: Biodistribution in stomach of NMRI nude mouse xenografted with human PC3 cells after 182 mins by gamma-counting analysis; type: ADME, organism-based, PC-3; details: in vivo
Bone [8] = assay: Biodistribution in bone of NMRI nude mouse xenografted with human PC3 cells after 182 mins by gamma-counting analysis; type: ADME, organism-based, Bone element, PC-3; details: in vivo
Mus musculus [9] = assay: Biodistribution in adrenal gland of NMRI nude mouse xenografted with human PC3 cells after 182 mins by gamma-counting analysis; type: ADME, organism-based, PC-3; details: in vivo
[10] = Biodistribution in fat of NMRI nude mouse xenografted with human PC3 cells after 182 mins by gamma-counting analysis; type: ADME, organism-based, Adipose tissue, PC-3; details: in vivo
Muscle tissue [11] = assay: Biodistribution in muscle of NMRI nude mouse xenografted with human PC3 cells after 182 mins by gamma-counting analysis; type: ADME, organism-based, PC-3; details: in vivo
Heart [12] = assay: Biodistribution in heart of NMRI nude mouse xenografted with human PC3 cells after 182 mins by gamma-counting analysis; type: ADME, organism-based, PC-3; details: in vivo
Spleen [13] = assay: Biodistribution in spleen of NMRI nude mouse xenografted with human PC3 cells after 182 mins by gamma-counting analysis; type: ADME, organism-based, PC-3; details: in vivo
[14] = Biodistribution in urine of NMRI nude mouse xenografted with human PC3 cells after 182 mins by gamma-counting analysis; type: ADME, organism-based, PC-3; details: in vivo
Mus musculus [15] = assay: Biodistribution in gallbladder of NMRI nude mouse xenografted with human PC3 cells after 182 mins by gamma-counting analysis; type: ADME, organism-based, Gall bladder, PC-3; details: in vivo
Lung [16] = assay: Biodistribution in lung of NMRI nude mouse xenografted with human PC3 cells after 182 mins by gamma-counting analysis; type: ADME, organism-based, PC-3; details: in vivo
Intestine [17] = assay: Biodistribution in intestine of NMRI nude mouse xenografted with human PC3 cells after 182 mins by gamma-counting analysis; type: ADME, organism-based, PC-3; details: in vivo
Kidney [18] = assay: Biodistribution in kidney of NMRI nude mouse xenografted with human PC3 cells after 182 mins by gamma-counting analysis; type: ADME, organism-based, PC-3; details: in vivo
Liver [19] = assay: Biodistribution in liver of NMRI nude mouse xenografted with human PC3 cells after 182 mins by gamma-counting analysis; type: ADME, organism-based, PC-3; details: in vivo
Mus musculus [20] = assay: Biodistribution in prostate of NMRI nude mouse xenografted with human PC3 cells after 182 mins by gamma-counting analysis; type: ADME, organism-based, Prostate gland, PC-3; details: in vivo
Pancreas [21] = assay: Biodistribution in pancreas of NMRI nude mouse xenografted with human PC3 cells after 182 mins by gamma-counting analysis; type: ADME, organism-based, PC-3; details: in vivo
Blood [22] = assay: Biodistribution in blood of NMRI nude mouse xenografted with human PC3 cells after 182 mins by gamma-counting analysis; type: ADME, organism-based, PC-3; details: in vivo
Mus musculus [23] = assay: Biodistribution in tumor of NMRI nude mouse xenografted with human PC3 cells after 182 mins by gamma-counting analysis; type: ADME, organism-based, Neoplasm, PC-3; details: in vivo
[24] = Ratio of biodistribution in tumor to muscle of NMRI nude mouse xenografted with human PC3 cells after 104 mins by gamma-counting analysis; type: ADME, organism-based, PC-3; details: in vivo
[25] = Ratio of biodistribution in tumor to blood of NMRI nude mouse xenografted with human PC3 cells after 104 mins by gamma-counting analysis; type: ADME, organism-based, PC-3; details: tumour
Stomach [26] = assay: Biodistribution in stomach of NMRI nude mouse xenografted with human PC3 cells after 104 mins by gamma-counting analysis; type: ADME, organism-based, PC-3; details: in vivo
Bone [27] = assay: Biodistribution in bone of NMRI nude mouse xenografted with human PC3 cells after 104 mins by gamma-counting analysis; type: ADME, organism-based, Bone element, PC-3; details: in vivo
Mus musculus [28] = assay: Biodistribution in adrenal gland of NMRI nude mouse xenografted with human PC3 cells after 104 mins by gamma-counting analysis; type: ADME, organism-based, PC-3; details: in vivo
Muscle tissue [29] = assay: Biodistribution in muscle of NMRI nude mouse xenografted with human PC3 cells after 104 mins by gamma-counting analysis; type: ADME, organism-based, PC-3; details: in vivo
[30] = Biodistribution in fat of NMRI nude mouse xenografted with human PC3 cells after 104 mins by gamma-counting analysis; type: ADME, organism-based, Adipose tissue, PC-3; details: in vivo
Heart [31] = assay: Biodistribution in heart of NMRI nude mouse xenografted with human PC3 cells after 104 mins by gamma-counting analysis; type: ADME, organism-based, PC-3; details: in vivo
Spleen [32] = assay: Biodistribution in spleen of NMRI nude mouse xenografted with human PC3 cells after 104 mins by gamma-counting analysis; type: ADME, organism-based, PC-3; details: in vivo
[33] = Biodistribution in urine of NMRI nude mouse xenografted with human PC3 cells after 104 mins by gamma-counting analysis; type: ADME, organism-based, PC-3; details: in vivo
Mus musculus [34] = assay: Biodistribution in gallbladder of NMRI nude mouse xenografted with human PC3 cells after 104 mins by gamma-counting analysis; type: ADME, organism-based, Gall bladder, PC-3; details: in vivo
Lung [35] = assay: Biodistribution in lung of NMRI nude mouse xenografted with human PC3 cells after 104 mins by gamma-counting analysis; type: ADME, organism-based, PC-3; details: in vivo
Intestine [36] = assay: Biodistribution in intestine of NMRI nude mouse xenografted with human PC3 cells after 104 mins by gamma-counting analysis; type: ADME, organism-based, PC-3; details: in vivo
Kidney [37] = assay: Biodistribution in kidney of NMRI nude mouse xenografted with human PC3 cells after 104 mins by gamma-counting analysis; type: ADME, organism-based, PC-3; details: in vivo
Liver [38] = assay: Biodistribution in liver of NMRI nude mouse xenografted with human PC3 cells after 104 mins by gamma-counting analysis; type: ADME, organism-based, PC-3; details: in vivo
Mus musculus [39] = assay: Biodistribution in prostate of NMRI nude mouse xenografted with human PC3 cells after 104 mins by gamma-counting analysis; type: ADME, organism-based, Prostate gland, PC-3; details: in vivo
Pancreas [40] = assay: Biodistribution in pancreas of NMRI nude mouse xenografted with human PC3 cells after 104 mins by gamma-counting analysis; type: ADME, organism-based, PC-3; details: in vivo
Blood [41] = assay: Biodistribution in blood of NMRI nude mouse xenografted with human PC3 cells after 104 mins by gamma-counting analysis; type: ADME, organism-based, PC-3; details: in vivo
Mus musculus [42] = assay: Biodistribution in tumor of NMRI nude mouse xenografted with human PC3 cells after 104 mins by gamma-counting analysis; type: ADME, organism-based, Neoplasm, PC-3; details: in vivo
Mus musculus [43] = assay: Biodistribution in tumor of NMRI nude mouse xenografted with human PC3 cells at 3.6 to 5.1 MBq after 62 to 170 mins by PET imaging analysis; type: ADME, organism-based, Neoplasm, PC-3; details: in vivo
[44] = Stability of the compound in PBS buffer up to 2 hrs; type: physicochemical
[45] = Lipophilicity, log D of the compound; type: physicochemical; details: octanol/water
[46] = Ratio of biodistribution in tumor to blood of NMRI nude mouse xenografted with human PC3 cells after 120 mins by gamma-counting analysis; type: ADME, organism-based, PC-3; details: tumour, 2 h
Spleen [47] = assay: Biodistribution in spleen of NMRI nude mouse xenografted with human PC3 cells after 120 mins by gamma-counting analysis; type: ADME, organism-based, PC-3; details: in vivo, 2 h
Mus musculus [48] = assay: Biodistribution in gallbladder of NMRI nude mouse xenografted with human PC3 cells after 120 mins by gamma-counting analysis; type: ADME, organism-based, Gall bladder, PC-3; details: in vivo, 2 h
Kidney [49] = assay: Biodistribution in kidney of NMRI nude mouse xenografted with human PC3 cells after 120 mins by gamma-counting analysis; type: ADME, organism-based, PC-3; details: in vivo, 2 h
Intestine [50] = assay: Biodistribution in intestine of NMRI nude mouse xenografted with human PC3 cells after 120 mins by gamma-counting analysis; type: ADME, organism-based, PC-3; details: in vivo, 2 h
Liver [51] = assay: Biodistribution in liver of NMRI nude mouse xenografted with human PC3 cells after 120 mins by gamma-counting analysis; type: ADME, organism-based, PC-3; details: in vivo, 2 h
Pancreas [52] = assay: Biodistribution in pancreas of NMRI nude mouse xenografted with human PC3 cells after 120 mins by gamma-counting analysis; type: ADME, organism-based, PC-3; details: in vivo, 2 h
Blood [53] = assay: Biodistribution in blood of NMRI nude mouse xenografted with human PC3 cells after 120 mins by gamma-counting analysis; type: ADME, organism-based, PC-3; details: in vivo, 2 h
Mus musculus [54] = assay: Biodistribution in tumor of NMRI nude mouse xenografted with human PC3 cells after 120 mins by gamma-counting analysis; type: ADME, organism-based, Neoplasm, PC-3; details: in vivo, 2 h

Compound: CC(C)(C)[Si]([18F])(CCn1cc(CC(N)C(=O)O)nn1)C(C)(C)C (centres undefined)
- Drug metabolism [1]: Active
- Drug metabolism [2]: Active
- half-life [3]: 16 h

Compound: CC(C)C[C@H](NC(=O)C[C@H](O)[C@H](CC(C)C)NC(=O)[C@H](Cc1cnc[nH]1)NC(=O)CN(C)C(=O)[C@@H](NC(=O)[C@H](C)NC(=O)[C@H](Cc1c[nH]c2ccccc12)NC(=O)[C@H](CCC(N)=O)NC(=O)CCCCNC(=O)[C@H](CS(=O)(=O)O)NC(=O)[C@H](CS(=O)(=O)O)NC(=O)C(O)C(O)C(=O)NCCc1ccc([Si]([18F])(C(C)(C)C)C(C)(C)C)cc1)C(C)C)C(N)=O (some centres undefined)
- Drug uptake (Mus musculus [4]): Not Active
- Ratio [5]: 8.41
- Ratio [6]: 0.95
- Drug uptake (Stomach [7]): 0.8 % ID/g
- Drug uptake (Bone [8]): 0.92 % ID/g
- Drug uptake (Mus musculus [9]): 2.07 % ID/g
- Drug uptake [10]: 0.51 % ID/g
- Drug uptake (Muscle tissue [11]): 0.29 % ID/g
- Drug uptake (Heart [12]): 0.85 % ID/g
- Drug uptake (Spleen [13]): 1.32 % ID/g
- Drug uptake [14]: 20 % ID/g
- Drug uptake (Mus musculus [15]): 128 % ID/g
- Drug uptake (Lung [16]): 1.94 % ID/g
- Drug uptake (Intestine [17]): 9.5 % ID/g
- Drug uptake (Kidney [18]): 4.1 % ID/g
- Drug uptake (Liver [19]): 13 % ID/g
- Drug uptake (Mus musculus [20]): 0.29 % ID/g
- Drug uptake (Pancreas [21]): 21 % ID/g
- Drug uptake (Blood [22]): 2.58 % ID/g
- Drug uptake (Mus musculus [23]): 2.44 % ID/g
- Ratio [24]: 5.03
- Ratio [25]: 0.65
- Drug uptake (Stomach [26]): 0.42 % ID/g
- Drug uptake (Bone [27]): 1.09 % ID/g
- Drug uptake (Mus musculus [28]): 5.01 % ID/g
- Drug uptake (Muscle tissue [29]): 0.69 % ID/g
- Drug uptake [30]: 1.24 % ID/g
- Drug uptake (Heart [31]): 1.37 % ID/g
- Drug uptake (Spleen [32]): 2.15 % ID/g
- Drug uptake [33]: 25 % ID/g
- Drug uptake (Mus musculus [34]): 36 % ID/g
- Drug uptake (Lung [35]): 4.2 % ID/g
- Drug uptake (Intestine [36]): 12.6 % ID/g
- Drug uptake (Kidney [37]): 6 % ID/g
- Drug uptake (Liver [38]): 25 % ID/g
- Drug uptake (Mus musculus [39]): 0.44 % ID/g
- Drug uptake (Pancreas [40]): 46 % ID/g
- Drug uptake (Blood [41]): 5.37 % ID/g
- Drug uptake (Mus musculus [42]): 3.47 % ID/g
- Drug uptake (Mus musculus [43]): Active
- Stability [44]: Stable

Compound: CC(C)C[C@H](NC(=O)C[C@H](O)[C@H](CC(C)C)NC(=O)[C@H](Cc1cnc[nH]1)NC(=O)CN(C)C(=O)[C@@H](NC(=O)[C@H](C)NC(=O)[C@H](Cc1c[nH]c2ccccc12)NC(=O)[C@H](CCC(N)=O)NC(=O)CCCCNC(=O)[C@H](CCCNC(=N)N)NC(=O)Cc1ccc([Si]([18F])(C(C)(C)C)C(C)(C)C)cc1)C(C)C)C(N)=O
- logD [45]: 1.3
- Ratio [46]: 0.95
- Drug uptake (Spleen [47]): 0.46 % ID/g
- Drug uptake (Mus musculus [48]): 146 % ID/g
- Drug uptake (Kidney [49]): 1.73 % ID/g
- Drug uptake (Intestine [50]): 16 % ID/g
- Drug uptake (Liver [51]): 4.4 % ID/g
- Drug uptake (Pancreas [52]): 4.08 % ID/g
- Drug uptake (Blood [53]): 0.42 % ID/g
- Drug uptake (Mus musculus [54]): 0.4 % ID/g
